Article PMC6797481, “Identification of an allosteric binding site on the human glycine transporter, GlyT2, for bioactive lipid analgesics” (eLife, 2019)
Changes are numbered by the printed parent chain.

Key:
Format in all cases: cell-based
GlyT2 W563L mutant = target: T1, GlyT2 W563L mutant (Homo sapiens, UniProt Q9Y345, W563L); assay: Glycine transport currents, two electrode voltage clamp, oocytes expressing GlyT2 W563L; conditions: for % Max. inhibition: mean ± SEM
T1 construct: expressed in transfected cells; host or cells: Xenopus laevis oocytes (cRNA injection)
T1 sequence (Q9Y345 1-797 W563L): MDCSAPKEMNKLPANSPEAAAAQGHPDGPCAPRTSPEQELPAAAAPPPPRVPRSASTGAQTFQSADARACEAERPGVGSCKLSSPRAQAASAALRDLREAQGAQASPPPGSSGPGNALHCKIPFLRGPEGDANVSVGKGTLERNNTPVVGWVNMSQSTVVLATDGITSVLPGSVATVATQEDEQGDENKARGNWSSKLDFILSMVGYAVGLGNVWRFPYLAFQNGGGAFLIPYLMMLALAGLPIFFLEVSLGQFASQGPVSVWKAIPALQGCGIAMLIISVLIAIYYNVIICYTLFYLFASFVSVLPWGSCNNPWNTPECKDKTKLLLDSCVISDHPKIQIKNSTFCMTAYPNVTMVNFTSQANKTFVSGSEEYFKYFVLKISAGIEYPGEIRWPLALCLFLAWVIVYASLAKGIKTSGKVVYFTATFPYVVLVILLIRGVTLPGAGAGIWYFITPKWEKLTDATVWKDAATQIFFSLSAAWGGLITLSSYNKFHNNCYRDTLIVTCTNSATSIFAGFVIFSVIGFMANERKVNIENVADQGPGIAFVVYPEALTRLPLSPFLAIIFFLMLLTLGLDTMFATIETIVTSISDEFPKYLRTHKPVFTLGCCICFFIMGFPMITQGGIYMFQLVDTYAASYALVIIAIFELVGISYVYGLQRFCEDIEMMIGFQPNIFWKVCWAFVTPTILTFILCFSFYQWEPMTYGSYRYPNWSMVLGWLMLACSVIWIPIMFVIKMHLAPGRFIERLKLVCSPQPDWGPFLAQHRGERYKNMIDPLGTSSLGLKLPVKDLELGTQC
Experimental: (§1) Glycine was first applied to establish maximal transport current.
(§2) Compounds were tested for inhibition of glycine transport on Xenopus laevis oocytes expressing mutant GlyT1 and GlyT2 transporters. n values are in brackets, with measurements taken from at least 2 batches of oocytes.

GlyT2 F428A mutant = target: T2, GlyT2 F428A mutant (Homo sapiens, UniProt Q9Y345, F428A); assay: Glycine transport currents, two electrode voltage clamp, oocytes expressing GlyT2 F428A; conditions: for % Max. inhibition (% inhibition at the highest concentration of inhibitor used): footnote b
T2 construct: expressed in transfected cells; host or cells: Xenopus laevis oocytes (cRNA injection)
T2 sequence (Q9Y345 1-797 F428A): T1 sequence (Q9Y345 1-797 W563L) with F428A, L563W
Experimental: as §1, §2

GlyT1 L425I mutant = target: T3, GlyT1 L425I mutant (Homo sapiens, UniProt P48067, L439I); assay: Glycine transport currents, two electrode voltage clamp, oocytes expressing GlyT1 L425I; conditions: for % Max. inhibition: mean ± SEM; for sensitivity of GlyT1 L425I to inhibition: similar to the WT GlyT1 response
T3 construct: expressed in transfected cells; host or cells: Xenopus laevis oocytes (cRNA injection)
T3 sequence (P48067 1-652 isoform P48067-3 L385I): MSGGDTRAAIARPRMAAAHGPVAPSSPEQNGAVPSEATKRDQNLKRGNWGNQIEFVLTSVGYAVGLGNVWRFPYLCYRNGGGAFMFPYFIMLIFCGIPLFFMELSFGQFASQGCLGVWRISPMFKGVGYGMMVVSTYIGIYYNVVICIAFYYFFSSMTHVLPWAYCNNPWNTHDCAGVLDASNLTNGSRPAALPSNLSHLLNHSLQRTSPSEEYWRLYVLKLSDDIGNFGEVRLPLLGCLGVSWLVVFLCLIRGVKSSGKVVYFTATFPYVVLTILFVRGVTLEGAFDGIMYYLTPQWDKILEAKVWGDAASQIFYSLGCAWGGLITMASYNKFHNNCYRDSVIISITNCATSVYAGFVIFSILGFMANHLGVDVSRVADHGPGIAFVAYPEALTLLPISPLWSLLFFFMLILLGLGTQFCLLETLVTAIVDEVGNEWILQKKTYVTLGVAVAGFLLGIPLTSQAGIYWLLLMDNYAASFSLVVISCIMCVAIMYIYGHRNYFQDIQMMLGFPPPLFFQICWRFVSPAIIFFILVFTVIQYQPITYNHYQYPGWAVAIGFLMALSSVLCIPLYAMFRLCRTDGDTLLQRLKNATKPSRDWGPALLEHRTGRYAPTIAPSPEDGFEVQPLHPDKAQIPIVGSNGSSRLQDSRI
Experimental: as §1, §2

[1] = GlyT2 W563L, greater than maximum concentration applied (footnote a)
[2] = GlyT1 L425I, greater than maximum concentration applied (footnote a)

Row | Compound | IC50 (GlyT2 W563L mutant; GlyT2 W563L, mean (95% CI)) | IC50 (GlyT2 W563L mutant; [1]) | % Max. inhibition (GlyT2 W563L mutant; GlyT2 W563L) | IC50 (GlyT2 F428A mutant; GlyT2 F428A) | % Max. inhibition (% inhibition at the highest concentration of inhibitor used) (GlyT2 F428A mutant; GlyT2 F428A) | % Max. inhibition (GlyT1 L425I mutant; GlyT1 L425I) | IC50 (GlyT1 L425I mutant; [2]) | further results
1 | CCCCCCCC/C=C\CCCCCCCC(=O)N[C@H](C(=O)O)C(C)C [oleoyl l-Valine] | 7.51 µM | – | – | – | – | – | – | % Max. inhibition (% inhibition at the highest concentration of inhibitor used) (GlyT2 W563L mutant; GlyT2 W563L, footnote b): 56.3 ± 9.1^b (p=0.5737) %
2 | oleoyl d-Lysine | – | > 3 µM | 42.1 ± 7.7 (p=0.0017) % | – | – | – | – | –
3 | CCCCCCCC/C=C\CCCCCCCC(=O)N[C@@H](CCCCN)C(=O)O [oleoyl l-Lysine] | 0.175 µM | – | 73.5 ± 3.3 (p=0.1479) % | > 3 µM | 39.2 ± 2.3^b (p=0.0001) % | 95.6% | – | fold lower apparent affinity at GlyT1 L425I (GlyT1 L425I mutant; GlyT1 L425I compared with WT GlyT2): 9 fold; IC50 (GlyT1 L425I mutant; GlyT1 L425I, mean (95% CI)): 0.236 µM
4 | CCCCCCCC/C=C\CCCCCCCC(=O)N[C@@H](Cc1c[nH]c2ccccc12)C(=O)O [oleoyl l-Tryptophan] | – | > 3 µM | 42.9 ± 2.6 (p=0.0001) % | – | – | 35.7 ± 13.2 (p=0.2787) % | > 3 µM | sensitivity of GlyT1 L425I to inhibition (GlyT1 L425I mutant): insensitive
5 | CCCCCCCC/C=C\CCCCCCCC(=O)O[C@H](CC(=O)[O-])C[N+](C)(C)C [oleoyl L-Carnitine, reference compound] | – | > 3 µM | 34.7 ± 3.2 (p=0.0001) % | > 3 µM | 22.7 ± 3.0^b (p=0.0001) % | 74.6% | – | –
6 | CCCCCCCC/C=C\CCCCCCCC(=O)N[C@@H](CC(=O)O)C(=O)O [oleoyl l-Aspartate] | 1.16 µM | – | 74.9 ± 7.5 (p=0.9965) % | – | – | – | – | –
7 | NCC(=O)O [Glycine] | – | – | – | – | – | – | – | EC50 (GlyT2 W563L mutant; glycine transport, GlyT2 W563L (TM8)): 4.9 ± 0.8 µM; EC50 (GlyT2 F428A mutant; glycine transport, GlyT2 F428A (TM5)): 6.2 ± 0.4 µM; EC50 (GlyT1 L425I mutant; glycine transport, GlyT1 mutant printed I425L (EL4)): 45.1 ± 9.6 µM
8 | CCCCC/C=C\C/C=C\C/C=C\C/C=C\CCCC(=O)NCC(=O)O [N-arachidonyl Glycine, reference compound] | – | – | – | – | 64.7 ± 6.6^b (p=0.9998) % | 31.6 ± 6.9 (p=0.0361) % | > 10 µM | IC50 (GlyT2 F428A mutant; GlyT2 F428A, mean (95% CI)): 14.4 µM
9 | CCCCCCCC/C=C\CCCCCCCC(=O)NCC(=O)O [N-oleoyl Glycine, reference compound] | 0.755 µM | – | 46.6 ± 4.0 (p=0.0449) % | > 10 µM | – | – | > 10 µM | % Max. inhibition (GlyT2 F428A mutant; GlyT2 F428A, mean ± SEM): 25.4 ± 4.9 (p=0.0001) %; % Max. inhibition (% inhibition at the highest concentration of inhibitor used) (GlyT1 L425I mutant; GlyT1 L425I, footnote b): 28.5 ± 5.3^b (p=0.0564) %; sensitivity of GlyT1 L425I to inhibition (GlyT1 L425I mutant): insensitive
